Experimental data as given in PubChem BioAssay (NCI).
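Assay format: 96-well plates, 48-hour exposure. At the TGI there is no net growth.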

Tests used:
Assay in all cases: NCI anticancer screen, dose series, 48 h
[1] = system: HL-60(TB) leukemia
[2] = system: HS 578T breast
[3] = system: MALME-3M melanoma
[4] = system: MDA-MB-231 breast
[5] = system: MDA-MB-435
[6] = system: MDA-N
[7] = system: NCI-H522 lung
[8] = system: PC-3 prostate
[9] = system: SF-268 CNS
[10] = system: SNB-75 CNS
[11] = system: T-47D breast
[12] = system: TK-10 renal
[13] = system: UACC-62 melanoma
[14] = system: DLD-1 colon
[15] = system: DMS 114 small cell lung
[16] = system: DMS 273 small cell lung
[17] = system: KM20L2 colon
[18] = system: M14 melanoma
[19] = system: M19-MEL melanoma
[20] = system: SNB-78 CNS

| Compound | TGI [1] [µM] | TGI [2] [µM] | TGI [3] [µM] | TGI [4] [µM] | TGI [5] [µM] | TGI [6] [µM] | TGI [7] [µM] | TGI [8] [µM] | TGI [9] [µM] | TGI [10] [µM] | TGI [11] [µM] | TGI [12] [µM] | TGI [13] [µM] | TGI [14] [µM] | TGI [15] [µM] | TGI [16] [µM] | TGI [17] [µM] | TGI [18] [µM] | TGI [19] [µM] | TGI [20] [µM] |
| --- | --- | --- | --- | --- | --- | --- | --- | --- | --- | --- | --- | --- | --- | --- | --- | --- | --- | --- | --- | --- |
| COC1/C=C/C=C(/C)Cc2cc(O)c(Cl)c(c2)N(C)C(=O)CC(OC(=O)C(C)C)C2(C)OC2C(C)C2CC1(O)NC(=O)O2 (stereo unspecified) | > 100 | > 100 | > 100 | > 42.3 | > 100 | < 0.01 | < 0.01 | > 100 | 44.2 | 2.08 | > 100 | > 65.2 | > 100 |  |  |  |  |  |  |  |
| CCOC(=O)c1nc2ccc(OC)cc2c2c1Cc1ccccc1-2 |  |  | > 100 |  |  |  | > 100 |  | > 100 | > 100 |  | > 100 | > 100 | > 100 | > 100 | > 100 | > 100 | > 100 | > 100 | > 100 |
| O=C1CC(/C=C/c2ccco2)=C(O)C1=O | 57.1 | 87.9 | 23.9 | 35.2 | 35.3 | 29.7 | 31.7 | 25.4 | 75 | 32.9 | 35.8 | 44.2 | 30.1 |  |  |  |  | 29.2 |  |  |
| CC(=O)C(=O)NC1/C=C(C)\C=C/C(O)C/C=C(C)\C=C/C(O)CC2OC(=O)C1(C)C(=O)C2C (stereo unspecified) |  |  | > 100 |  |  |  | > 100 |  | > 100 | > 100 |  |  | > 100 | > 100 | > 100 | > 100 | > 100 |  | > 100 | > 100 |
